Results published in patent US12391962B2, “Targeting peptide to deliver a compound to oocytes” (THE PENN STATE RESEARCH FOUNDATION, priority 2017, dated 2025).
Values joined by “and” are separate entries in the source; they are usually repeats but may differ in a detail not shown here. Equal values may be shown once. “Also recorded” adds a separate entry of the source.

Columns and labels:
kmo gene = assay: Paternal allele knockout by adult female injection: white eye females x wild-type males; type: in vivo, Aedes aegypti; settings: EER co-injected with RNP; for altered offspring with the endosomal release reagent: females injected at 48-52 h PBF; for mosaic offspring per injected females with the endosomal release reagent: 48-52 h PBF, 1/20 females
Description: After mating as described in the above, females (generation −1; G−1) were blood fed and injected with P2C-Cas9 RNPs and EERs. Resulting G0 offspring were screened for kmo gene editing phenotypes (white or mosaic eyes). Genomic DNA from identified individuals was extracted using DNeasy blood and tissue kits (Qiagen) and the region spanning both kmo 460 and 519* sites amplified by PCR using primers ZA2210 (5′TTC-AAG-ACC-AGG-CCT-CAA-TC3′) (SEQ ID NO: 35) and KmR1 (5′TCA-CTA-AAC-TCA-GCC-AGT-ATC-CTA-T3′) (SEQ ID NO: 36) and cloned into the pJET1.2 vector. A minimum of 6 clones per individual were randomly selected and sequenced.
In order to estimate the frequency of paternal gene editing, homozygous Wh-Iso8-kmo^460 females outcrossed to homozygous wild type males were injected at 48-52 h PBF. […] The region spanning the target sites from the mosaic individual collected from saponin treatment was cloned and sequenced (FIG. 10A). […] The genomic DNA from the monensin and spontaneous white eye individuals were not of suitable quality for PCR and cloning.

recombinant Cas9 = molecular target: T1, recombinant Cas9 (Streptococcus pyogenes serotype M1, UniProt Q99ZW2); assay: In vitro DNA cleavage assay; type: biochemical; settings: gel separation
T1 construct: vector-derived additions of pET28a-Cas9-cys (the plasmid name implies an added Cys); made in house; host or cells: E. coli BL21 and Rosetta2 (DE3) pLysS
Procedure: Reactions were performed for 1 h at 37° C. and diagnostic bands visualized by electrophoresis in a 1% agarose/TAE gel.

Ae. aegypti females = assay: LD50 of endosomal escape reagents injected into the hemolymph 24h PBF; settings: injected into the hemolymph of females 24h PBF; 100 females injected
Bemisia tabaci ovaries = assay: Transduction of mCherry into ovaries with vitellogenin-derived targeting peptide; type: in vivo; settings: injection into adult females
Description: (§1) Several targeting peptides, including […] (Bemisia tabaci, SEQ ID NO: 26), […] (Bombus impatiens, SEQ ID NO: 27), […] (Ixodes scapularis, SEQ ID NO: 28), or […] (Danio rerio, SEQ ID NO: 29), were further validated. The DNA encoding these peptides were synthesized, fused to the fluorescent reporter proteins GFP or mCherry (with a HIS tag to aid in purification), and cloned into pET28. The plasmids were then transformed into E. coli BL21 (NEB) and Rosetta2™ (DE3) pLysS competent cells, with the transformation being verified by […].
(§2) To induce expression of the recombinant protein, a preculture was grown overnight at 30° C. in 50 mL of Luria Broth (LB) supplemented with […] chloramphenicol and […] kanamycin. After 12 hours, 10 mL of preculture was transferred to 900 mL of LB supplemented with the same antibiotics, incubated at 37° C. until OD=0.6. Then 0.05 mM isopropyl β-D-1-thiogalactopyranoside (IPTG) was added and the culture incubated overnight at 30° C.
(§3) Cells were spun down at >10,000×g for 15 min, resuspended in 50 mL lysis buffer (20 mM Tris-HCl, pH 8.0, 300 mM NaCl, 20 mM imidazole), placed at −80° C. overnight and incubated with lysozyme (1 mg/ml) and 100 ppm of […] (PMSF) for 30 min at 4° C. The suspension was sonicated 5 times at 60% duty 5 seconds pulse 5 seconds rest (two aliquots each 20 mL), centrifuged at 13,000×g for 30 min, the supernatant removed and incubated with Ni-NTA beads (Qiagen) with rotation at 4° C. overnight. Beads were washed 3 times with 10 mL lysis buffer and eluted with 1 mL elution buffer (20 mM Tris-HCl, pH 8.0, 300 mM NaCl, 250 mM imidazole) 10 times. Eluted protein was dialyzed in a Slide-A-Lyzer dialysis cassette (Thermo Fisher) for two hours in dialysis buffer (50 mM Tris-HCl, pH 8.0, 300 mM KCl, 0.1 mM EDTA, 0.5 mM PMSF) and buffer changed every 2 hours, for 2 times, then left overnight at 4° C. with gentle agitation in fresh buffer, Protein purity was visualized by SDS-PAGE and concentration estimated using Bradford assay. […]

Danio rerio ovaries = assay: Transduction of EGFP into ovaries with vitellogenin-derived targeting peptide; type: in vivo; settings: injection into adult females
Description: as §1, §2
Cells were spun down at >10,000×g for 15 min, resuspended in 50 mL lysis buffer (20 mM Tris-HCl, pH 8.0, 300 mM NaCl, 20 mM imidazole), placed at −80° C. overnight and incubated with lysozyme (1 mg/ml) and 100 ppm of […] (PMSF) for 30 min at 4° C. […]

[1] = system: Ixodes scapularis ovaries; assay: Transduction of mCherry into ovaries with vitellogenin-derived targeting peptide; type: in vivo; settings: injection into adult females
Description: as §1, §2, §3

[2] = system: Anopheles gambiae oocytes; assay: Ovary uptake of EGFP fusion proteins after injection into blood-fed females (fluorescence microscopy); type: in vivo
Procedure: To show DmYP1 (or fragments thereof) act as suitable ligands to deliver protein cargo into mosquito oocytes, a DmYP1-EGFP, or fragments of DmYP1-EGFP, fusion protein was expressed and injected into the thorax of Anopheles gambiae females 12 and 24 h post-blood feeding (PBF).
Injections were performed with an aspirator tube assembly (A5177, Sigma) fitted with a glass capillary needle. Adult females were immobilized at 4° C. following a bloodmeal and kept on ice during injection. Females were injected intrathoracically until no additional fluid would enter, at an approximate volume of 200 nl per female. To visually confirm EGFP in the ovaries following injection, ovaries were dissected, mounted in saline buffer mixed with SlowFade Gold® antifade reagent (Invitrogen), covered with a coverslip and imaged on an Olympus BX41 epifluorescent microscope. Negative controls were injected with recombinant EGFP lacking a targeting ligand.
A deletion analysis of the DmYP1 protein was conducted to identify the smaller region that efficiently transduced cargo into mosquito ovaries. Three portions of approximately 120 amino acids (FIG. 1) were encoded on an expression plasmid linked to EGFP via a Glycine-Serine linker. Fusion proteins included the DmYP1 secretion signal at the N-terminus. The construct was inserted into the plasmid pAc5-STABLE1-Neo under control of the Drosophila Actin5C promoter. Plasmids were transfected into Drosophila S2 cells using Lipofectamine® LTX WITH Plus™ Reagent (ThermoFisher). Cell culture supernatant was collected 72 hours post-transfection, concentrated 100× using Amicon® and Centricon® Plus-70 centrifugal filter devices (Millipore) and injected into female An. gambiae 12 and 24 hours PBF. Ovaries were dissected 12, 24 and 48 h hours post-injection, dissected and visualized for EGFP fluorescence. EGFP fusion protein fused to the full length DmYP1 protein (439 amino acids) was used as a positive control, while recombinant EGFP without a targeting ligand was used as a negative control.

mealybug ovaries = assay: P2C-mediated delivery of EGFP to mealybug ovaries; type: in vivo; settings: procedure of Example 1
Procedure: To determine if P2C could be used in to deliver cargo in species other than mosquito, it was tested on mealybugs using the procedure of Example 1. […] Therefore, P2C is an effective targeting molecule in more than just mosquitoes.

B. tabaci white gene = assay: Knockout of the B. tabaci white gene by ReMOT Control (adult female injection); type: in vivo, Bemisia tabaci
Procedure: The females were injected and placed on a piece of soybean leaflet in a petri dish with a moist paper towel wrapped around the stem and another paper towel on the bottom plate to prolong the life of the leaflet. Water and liquid fertilizer were added as needed. Females were removed from the leaflet 2 weeks post injection. The petri dishes were incubated at 28° C., 16L/8D cycle, in a humidified Heratherm IMH750-S reach-in chamber, and the progeny of injected females screened visually for altered eye color in nymphs or adults using an Olympus SZX7 stereomicroscope. Mutations in insects showing altered eye color were confirmed by PCR using PHIRE Tissue Direct PCR Master Mix (Thermo Fischer Scientific), the amplicon was cloned into pJET1.2, and clones were submitted for Sanger sequencing.
For proof of principle gene editing experiments, we chose the white gene, which is an ABC transporter protein responsible for transport of ommochrome pigments into the eyes.

Aedes aegypti ovaries = assay: Transduction of mCherry into ovaries with vitellogenin-derived targeting peptide; type: in vivo; settings: injection into adult females
Bombus impatiens ovaries = assay: as above; type: in vivo; settings: injection into adult females
Description: as §1, §2, §3

[3] = injection 12 h PBF, Total of 2 replicates
[4] = injection 24 h PBF, Total of 2 replicates

T1 sequence (Q99ZW2 whole entry): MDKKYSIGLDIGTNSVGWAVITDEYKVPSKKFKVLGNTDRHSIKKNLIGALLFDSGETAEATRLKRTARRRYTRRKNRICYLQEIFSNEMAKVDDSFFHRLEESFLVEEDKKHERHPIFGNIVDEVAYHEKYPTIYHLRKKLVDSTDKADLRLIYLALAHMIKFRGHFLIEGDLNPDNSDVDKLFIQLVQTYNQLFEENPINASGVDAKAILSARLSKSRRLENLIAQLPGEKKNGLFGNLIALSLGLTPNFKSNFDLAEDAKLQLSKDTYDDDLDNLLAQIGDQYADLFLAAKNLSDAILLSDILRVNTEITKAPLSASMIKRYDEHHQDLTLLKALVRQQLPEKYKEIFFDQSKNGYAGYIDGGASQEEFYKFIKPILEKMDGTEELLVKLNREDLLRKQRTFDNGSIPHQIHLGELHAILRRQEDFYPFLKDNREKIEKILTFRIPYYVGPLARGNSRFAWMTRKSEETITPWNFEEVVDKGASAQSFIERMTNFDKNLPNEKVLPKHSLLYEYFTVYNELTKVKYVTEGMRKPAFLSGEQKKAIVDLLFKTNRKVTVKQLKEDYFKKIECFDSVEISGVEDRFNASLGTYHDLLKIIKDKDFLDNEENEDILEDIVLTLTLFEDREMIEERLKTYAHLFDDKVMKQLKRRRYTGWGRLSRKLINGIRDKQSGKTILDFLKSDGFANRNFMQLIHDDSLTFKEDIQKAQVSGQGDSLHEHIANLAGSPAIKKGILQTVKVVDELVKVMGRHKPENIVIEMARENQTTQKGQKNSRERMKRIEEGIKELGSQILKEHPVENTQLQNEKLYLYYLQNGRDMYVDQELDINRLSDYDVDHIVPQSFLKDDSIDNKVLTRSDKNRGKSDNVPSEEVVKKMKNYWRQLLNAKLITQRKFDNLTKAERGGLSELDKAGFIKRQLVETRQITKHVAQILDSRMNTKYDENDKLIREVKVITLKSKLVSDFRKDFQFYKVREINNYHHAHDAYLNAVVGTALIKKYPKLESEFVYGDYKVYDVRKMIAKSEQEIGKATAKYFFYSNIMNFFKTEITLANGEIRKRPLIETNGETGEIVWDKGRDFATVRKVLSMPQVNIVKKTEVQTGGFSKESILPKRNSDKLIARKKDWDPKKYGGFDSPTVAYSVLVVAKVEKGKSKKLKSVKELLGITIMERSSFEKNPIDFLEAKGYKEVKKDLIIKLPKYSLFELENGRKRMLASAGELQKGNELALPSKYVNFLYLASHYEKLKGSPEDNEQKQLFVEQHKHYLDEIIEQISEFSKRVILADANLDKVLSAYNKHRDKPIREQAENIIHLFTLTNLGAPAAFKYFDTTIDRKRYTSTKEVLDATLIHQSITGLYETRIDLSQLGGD

Cl.N [Ammonium Chloride]
altered offspring with the endosomal release reagent (kmo gene): no altered offspring

CCN(CC)CCCC(C)Nc1ccnc2cc(Cl)ccc12 (stereo not drawn) [Chloroquine]
effect on Cas9 cleavage function in vitro (recombinant Cas9): did not affect Cas9 cleavage function in vitro
effect on Cas9 cleavage function in vitro (recombinant Cas9; listed as chloroquine): not inhibited
altered offspring with the endosomal release reagent (kmo gene): no altered offspring

CC[C@@]1([C@@H]2O[C@@H]([C@H]3O[C@@](O)(CO)[C@H](C)C[C@@H]3C)C[C@@H]2C)CC[C@H]([C@]2(C)CC[C@]3(C[C@H](O)[C@@H](C)[C@@H]([C@@H](C)[C@@H](OC)[C@H](C)C(=O)O)O3)O2)O1 [Monensin]
mosaic offspring per injected females with the endosomal release reagent (kmo gene): 5%
LD50 (Ae. aegypti females): 1.0 mM

O=C(N/N=C/c1ccc(O)c(O)c1)c1cc2ccccc2cc1O [dynasore]
altered offspring with the endosomal release reagent (kmo gene): no altered offspring

DIVKTTNY
transduction of mCherry protein into ovaries (Bemisia tabaci ovaries): transduced into developing vitellogenic eggs

IVTKSKDL
transduction of EGFP protein into ovaries (Danio rerio ovaries): transduced into developing vitellogenic eggs

NFTKTKNY
transduction of mCherry protein into ovaries [1]: transduced into developing vitellogenic eggs

NLQQQRQHGKNGNQDYQDQSNEQRKNQRTSSEEDYSEEVKN (Drosophila melanogaster) [P2C]
localization of transduced EGFP ([2]; embryo development): observed in yolk granules (arrows) throughout embryo development
ovary uptake / delivery of EGFP in deletion analysis of DmYP1 ([2]; fragments expressed as EGFP fusion proteins): contained the RBR; also recorded: fully sufficient to deliver EGFP to Anopheles oocytes
dose dependence of P2C-mediated transduction of EGFP ([2]; injected 12 h, ovaries dissected 24 h PBF): dose-dependent
delivery of EGFP into eggs (mealybug ovaries): able to specifically deliver EGFP into the developing vitellogenic eggs, but not the immature eggs
gene editing outcome by targeting peptide (in words) (B. tabaci white gene; Cas9 RNP injections, with or without saponin): did not function robustly; also recorded: did not result in any visibly edited offspring; also recorded: did not generate knockouts

QVTKTQNF
transduction of mCherry protein into ovaries (Aedes aegypti ovaries): transduced into developing vitellogenic eggs

RKSKNFDK
transduction of mCherry protein into ovaries (Bombus impatiens ovaries): transduced into developing vitellogenic eggs

Saponin [reference compound]
mosaic offspring per injected females with the endosomal release reagent (kmo gene): 5%
effect of saponin as endosome escape reagent on editing (B. tabaci white gene; higher concentrations (8, 16 μg/mL)): inhibitory; also recorded: detrimental to the process
LD50 (Ae. aegypti females): 0.024 mM

B1: DmYP1-EGFP: fusion protein of full length Drosophila melanogaster Yolk Protein 1 (439 amino acids) with EGFP (protein)
chain: PNGRMDNSVNQALKPSQWLSGSQLEAIPALDDFTIERLENMNLERGAELLQQVYHLSQIHHNVEPNYVPSGIQVYVPKPNGDKTVAPLNEMIQRLKQKQNFGEDEVTIIVTGLPQTSETVKKATRKLVQAYMQRYNLQQQRQHGKNGNQDYQDQSNEQRKNQRTSSEEDYSEEVKNAKTQSGDIIVIDLGSKLNTYERYAMLDIEKTGAKIGKWIVQMVNELDMPFDTIHLIGQNVGAHVAGAAAQEFTRLTGHKLRRVTGLDPSKIVAKSKNTLTGLARGDAEFVDAIHTSVYGMGTPIRSGDVDFYPNGPAAGVPGASNVVEAAMRATRYFAESVRPGNERSFPAVPANSLQQYKQNDGFGKRAYMGIDTAHDLEGDYILQVNPKSPFGRNAPAQKQSSYHGVHQAWNTNQDSKDYQ
modifications: left off: small tags and cut ends; large carriers
notes: fusion protein of full length Drosophila melanogaster Yolk Protein 1 (439 amino acids) with EGFP
% Follicles (Efficiency) ([2]; injection 12 h PBF): 100% and 98%
N Follicles with EGFP ([2]; injection 12 h PBF): 243 and 381
N (showing EGFP in follicles) ([2]; injection 12 h PBF, 20 females injected per replicate): 17 and 19
% Follicles (Efficiency) [2, 3]: 99.7%^
N Follicles with EGFP [2, 3]: 624
N (showing EGFP in follicles) ([2]; injection 12 h PBF, Total of 2 replicates, 40 injected): 36
% Follicles (Efficiency) ([2]; injection 24 h PBF): 98% and 99%
N Follicles with EGFP ([2]; injection 24 h PBF): 245 and 197
N (showing EGFP in follicles) ([2]; injection 24 h PBF, 20 females injected per replicate): 18 and 17
% Follicles (Efficiency) [2, 4]: 98.2%^
N Follicles with EGFP [2, 4]: 442
N (showing EGFP in follicles) ([2]; injection 24 h PBF, Total of 2 replicates, 40 injected): 35
primary oocytes with EGFP visualized ([2]; regardless of the timing of the injection, ovaries dissected 24-72 h PBF): 90-100%
